Measured values: PMC3578829, “A Small Molecule (Pluripotin) as a Tool for Studying Cancer Stem Cell Biology: Proof of Concept” (PLoS ONE, 2013)

How the values were obtained:
RSK2 = experiment: Immunoblotting of RSK2 protein levels in COLO 205; assay type: cell-based; settings: 5 days of exposure to 0.1 µM SC-1
Method: Since SC-1 inhibited RSK2 kinase activity, we first determined if RSK2 protein levels were altered.
Standard protein electrophoretic techniques were followed using previously published protocols. For these studies, the colon lines were cultured for 5 days with and without treatments, harvested with trypsin (0.25% trypsin 0.5 mM EDTA, Invitrogen), counted and lysed with a whole cell lysis buffer (10 mM Tris, 1.0 mM EDTA, 50 mM NaCl, 0.5% deoxycholate, 0.5% NP-40, 0.5% SDS, 1.0 mM PMSF, and aprotonin and a cocktail of phosphatase and protease inhibitors). The whole cell lysate was heated to 100°C for 10 min and then fractionated (1000 g, 10 min, 4°C). Protein concentrations were measured with the Pierce BCA Protein Assay. Twenty to 40 µg of protein lysate per lane were loaded onto 10% SDS polyacrylamide gels (Ready-Gels, Biorad) with Laemmli buffer. For immunoblotting, the primary antibodies were diluted in Tween/Tris wash buffer (0.1 mM Tris-HCl pH 7.5, 2.5% Tween-20, 150 mM NaCl) and 5% BSA or nonfat dry milk and incubated overnight at 4°C. […] Pixel intensity of the imaged bands was measured using STORM (GE Amersham) and Image Quant Software. Normalization for loading was accomplished by reprobing with an anti-actin antibody, quantification of pixel intensity and data normalization.

HCT-116 [1] = experiment: Cell cycle analysis; assay type: cell-based; settings: harvested day 5
Method: Approximately 5×10^6 cells were washed with PBS, resuspended in 5 ml of 4°C 70% ethyl alcohol (ETOH) and then incubated at 4°C for 30 min. The sample was washed again before the addition of 0.5 ml PBS containing 0.2 mg/ml of RNAse A. The sample was then incubated at 37°C for 15 minutes. Next, 0.5 ml propidium iodide (0.05 mg/ml in PBS) was added and incubated at 4°C in the dark for 15 min. The sample was then analyzed on the FACScan (Becton Dickinson, San Jose, CA) flow cytometer. Modfit software evaluated DNA content with an automatic module to determine the fraction of cells in the cell cycle compartments.

HT29 = experiment: Soft agar cloning assay; assay type: cell-based
Method: (§1) The soft agar colony formation assay has been previously described. In brief, for each treatment condition, triplicate 35 mm^2 dishes were coated with a 1 ml base layer containing 0.7% agarose (Seaplaque: FMC Corp., Rockland, ME). On day 0, cells were dissociated, washed once in growth medium, and subcultured by layering various cell concentrations in 0.5 ml culture medium containing 0.3% agarose onto the base coat. Culture dishes were transferred to a refrigerator (4°C) for 15 min, to room temperature for 10 min, and then to culture incubators. An upper layer of 0.5 ml culture medium was applied on day 0. Cultures were stained with MTT (1 mg/ml) for visualization and imaging at multiple time intervals (day 7 and 14). Cumulative counts of colonies (diameters, >60 µm) and cumulative volumes of CFU (diameters >120 µm) were determined with an Omnicon FAS-II (Bausch & Lomb, Rochester, NY) following calibration with an Omnicon test plate 3 and polystyrene microspheres embedded in soft agar matrix. The evaluable region of each culture dish (35 contiguous fields equivalent to 51% of the cell layer culture volume) was analyzed. Selective scoring of viable cell groups was achieved by adjustment of the instrument detection threshold to exclude images of nonstained cellular material and debris. The data was analyzed with Lotus Symphony software.

HCT-116 [2] = experiment: Soft agar cloning assay; assay type: cell-based
Method: as §1

COLO 205 = experiment: Soft agar cloning assay; assay type: cell-based
Method: as §1

HCC-2998 = experiment: Soft agar cloning assay; assay type: cell-based
Method: as §1

phospho-ERK1/2 = tested on: phospho-ERK1/2; set-up: method as in PMID 17088537; settings: murine embryonic stem cells; 30 minutes of exposure; cited from earlier work
HCT-15 = experiment: Limiting dilution tumorigenicity with Matrigel co-injection; assay type: in vivo, NOD.SCID mice; set-up: key to Tumorigenicity: Y indicates increased tumor formation or increased time to appearance or both.; Y ^%: Y indicates increased tumor formation when Matrigel was co-injected
Description: To explore the lack of a tumorigenic effect for SC-1 treated HCT-15 cells, the limiting dilution tumorigenicity assay was repeated with the addition of Matrigel to the injected cells (10, 100, 1000, and 10000 cells per injection). A protein support such as Matrigel may provide anchoring, a substrate for angiogenesis, and growth factors. […] For SC-1 treated cells co-injected with Matrigel, 5 of 5 mice had tumor formation over the 99 day observation period at the 10 cell inoculum (Figure 1).
Six week old female NOD.SCID mice were randomly assigned to each of 20 treatment arms (n = 5/group). Treated and control colon tumor lines were enzymatically harvested and counted prior to dilution in RPMI 1640 (at 10, 100, 1,000, 10,000 cells/inoculum) for subcutaneous injection into the axillary region using a volume of […]. Positive control groups were established such that tumor formation occurred in all mice in approximately one week thus confirming that all tumor lines studied were tumorigenic. Cell inocula for the positive control groups ranged from 1×10^6 to 2.5×10^6. Cell viability of the cell stocks was assessed by trypan blue exclusion prior to dilution for injection and was routinely found to be >95%. Tumor formation was monitored weekly using caliper measurements and the tumor mass was calculated as weight in mg = 1/2×(tumor length)×(tumor width)^2. All experiments were terminated at 120 days or when tumor weight exceeded 2000 mg for any individual mouse. In selected studies, tumor cells were resuspended in Matrigel (50% concentration, BD Biosciences) prior to injection.

colon tumor lines = experiment: Cloning assay, all colon tumor lines; assay type: cell-based
Method: as §1, with “Culture” for “The soft agar colony formation assay has been previously described. In brief, for each treatment condition, triplicate 35 mm^2 dishes were coated with a 1 ml base layer containing 0.7% agarose (Seaplaque: FMC Corp., Rockland, ME). On day 0, cells were dissociated, washed once in growth medium, and subcultured by layering various cell concentrations in 0.5 ml culture medium containing 0.3% agarose onto the base coat. Culture”

[3] = soft agar, summary of SC-1 effects

## Cc1cc(Nc2ncc3c(n2)N(C)C(=O)N(c2cc(NC(=O)c4cccc(C(F)(F)F)c4)ccc2C)C3)n(C)n1 [SC-1]
RSK2
  Decrease of RSK2 protein levels: 33%
HCT-116 [1]
  Distribution of cell population across the cell cycle vs control: no difference
HT29; 0.1 µM SC-1 for five days
  Cloning efficiency in soft agar vs control: significant increases in cloning efficiencies
HT29; [3]
  Clonogenicity: Y
HCT-116 [2]; 0.1 µM SC-1 for five days
  Cloning efficiency in soft agar vs control: significant increases in cloning efficiencies
HCT-116 [2]; [3]
  Clonogenicity: Y
COLO 205; 0.1 µM SC-1 for 24 hrs prior to cloning
  Colony formation in soft agar vs control: increased colony formation was found only at the highest plating density
COLO 205; 0.1 µM SC-1 for five days
  Cloning efficiency in soft agar vs control: significant increases in cloning efficiencies
COLO 205; [3]
  Clonogenicity: Y
HCC-2998; 0.1 µM SC-1 for five days
  Cloning efficiency in soft agar vs control: significant increases in cloning efficiencies
HCC-2998; [3]
  Clonogenicity: Y
phospho-ERK1/2
  phospho-ERK1/2 protein levels: inhibited
HCT-15; HCT-15, 100, 1000, and 10000 cells per injection with Matrigel
  Tumor formation: tumors formed in all mice
HCT-15; HCT-15, Matrigel co-injected, summary of SC-1 effects
  Tumorigenicity: Y ^%
HCT-15; HCT-15 SC-1 treated, 10 cell inoculum co-injected with Matrigel, 99 day observation
  Tumor formation (take rate): 5 of 5
Colon tumor lines; assay conducted using Matrigel instead of soft agar (data not shown)
  Cloning efficiency, all tumor lines: increased cloning efficiency
Colon tumor lines; soft agar, 0.1 µM SC-1 for five days, vs control treated cells
  Tumor lines with statistically significant increases in cumulative colony forming unit (CFU) mass: 5/7
